From ChEMBL document CHEMBL1201862, “PubChem BioAssay data set” (2004)
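Each compound was tested at five concentrations against cells in 96-well plates for 48 hours. GI50 = concentration required for 50% inhibition of growth.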 Activity calls are given as the source filed them. Rule as the data show it: active = GI50 up to about 1.1 µM and inactive = higher.

What was measured:
Assay in all cases: growth of human tumour cells (NCI), 48 h
[1] = system: UO-31
[2] = system: HOP-62
[3] = system: LXFL 529
[4] = system: HL-60
[5] = system: KM-20L2
[6] = system: LOX IMVI
[7] = system: OVCAR-4
[8] = system: NCI-H226
[9] = system: HCT-116
[10] = system: K562
[11] = system: NCI-H460
[12] = system: HCT-15
[13] = system: COLO 205
[14] = system: MOLT-4
[15] = system: SK-MEL-5
[16] = system: CAKI-1
[17] = system: SW-620
[18] = system: U-251
[19] = system: HCC 2998
[20] = system: OVCAR-5
[21] = system: M19-MEL
[22] = system: UACC-257
[23] = system: Malme-3M
[24] = system: NCI-H23
[25] = system: CCRF-CEM
[26] = system: M14
[27] = system: HT-29
[28] = system: 786-0
[29] = system: IGROV-1
[30] = system: KM12
[31] = system: SK-MEL-28
[32] = system: SNB-19
[33] = system: A549
[34] = system: ACHN
[35] = system: SK-MEL-2
[36] = system: RXF 393
[37] = system: SR
[38] = system: UACC-62
[39] = system: SF-268
[40] = system: OVCAR-3
[41] = system: SNB-78
[42] = system: DLD-1
[43] = system: OVCAR-8
[44] = system: HOP-18
[45] = system: SN12C
[46] = system: SK-OV-3
[47] = system: SF-539
[48] = system: SF-295
[49] = system: DMS-114
[50] = system: TK-10
[51] = system: EKVX

Cc1ccc(NC(=O)CC/C(CC(=O)C(C)(C)C)=N/NC(=O)C[N+](C)(C)C)cc1C
GI50 [1]: > 100 µM (inactive)
GI50 [2]: > 100 µM (inactive)
GI50 [3]: > 100 µM (inactive)
GI50 [4]: > 100 µM (inactive)
GI50 [5]: > 100 µM (inactive)
GI50 [6]: > 100 µM (inactive)
GI50 [7]: > 100 µM (inactive)
GI50 [8]: > 100 µM (inactive)
GI50 [9]: > 100 µM (inactive)
GI50 [10]: > 100 µM (inactive)
GI50 [11]: > 100 µM (inactive)
GI50 [12]: > 100 µM
GI50 [13]: > 100 µM (inactive)
GI50 [14]: > 100 µM (inactive)
GI50 [15]: > 100 µM (inactive)
GI50 [16]: > 100 µM (inactive)
GI50 [17]: > 100 µM (inactive)
GI50 [18]: > 100 µM (inactive)
GI50 [19]: > 100 µM (inactive)
GI50 [20]: > 100 µM (inactive)
GI50 [21]: > 100 µM (inactive)
GI50 [22]: > 100 µM (inactive)
GI50 [23]: > 100 µM (inactive)
GI50 [24]: > 100 µM (inactive)
GI50 [25]: > 100 µM (inactive)
GI50 [26]: > 100 µM (inactive)
GI50 [27]: > 100 µM (inactive)
GI50 [28]: 18.2 µM (inactive)
GI50 [29]: > 100 µM (inactive)
GI50 [30]: > 100 µM (inactive)
GI50 [31]: > 100 µM (inactive)
GI50 [32]: > 100 µM (inactive)
GI50 [33]: 21.7 µM (inactive)
GI50 [34]: > 100 µM (inactive)
GI50 [35]: > 100 µM (inactive)
GI50 [36]: > 100 µM (inactive)
GI50 [37]: 84.1 µM (inactive)
GI50 [38]: > 100 µM (inactive)
GI50 [39]: > 100 µM (inactive)
GI50 [40]: > 100 µM (inactive)
GI50 [41]: > 100 µM (inactive)
GI50 [42]: > 100 µM (inactive)
GI50 [43]: > 100 µM (inactive)
GI50 [44]: > 100 µM (inactive)
GI50 [45]: > 100 µM (inactive)
GI50 [46]: > 100 µM (inactive)
GI50 [47]: 18.6 µM (inactive)
GI50 [48]: > 100 µM (inactive)
GI50 [49]: > 100 µM (inactive)
GI50 [50]: > 100 µM (inactive)
GI50 [51]: > 100 µM (inactive)
